Results: US11485731B2, “Compounds and methods useful in the treatment of a PRMT5-mediated disorder” (ARGONAUT THERAPEUTICS LIMITED, priority 2017, dated 2022)

These compounds were tested against human PRMT5/MEP50 (Homo sapiens (Human), UniProt O14744) (assay: PRMT5 chemiluminescent assay). Details: human PRMT5/MEP50 expressed in HEK293 cells; biotinylated histone peptides; Histone H4 monomethyl R3 antibody; chemiluminescent readout.
Assay type: biochemical
Outline: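 HEK293-expressed PRMT5/MEP50, diluted to 5 ng/µL in assay buffer, reacted 60 min with rotation on plate-bound biotinylated histone peptides. Product was detected with anti-histone H4 R3 monomethyl antibody (60 min), then HRP secondary (30 min) and chemiluminescent substrate. IC50 values came from the chemiluminescence signal.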

Sequence of human PRMT5/MEP50 (O14744 whole entry): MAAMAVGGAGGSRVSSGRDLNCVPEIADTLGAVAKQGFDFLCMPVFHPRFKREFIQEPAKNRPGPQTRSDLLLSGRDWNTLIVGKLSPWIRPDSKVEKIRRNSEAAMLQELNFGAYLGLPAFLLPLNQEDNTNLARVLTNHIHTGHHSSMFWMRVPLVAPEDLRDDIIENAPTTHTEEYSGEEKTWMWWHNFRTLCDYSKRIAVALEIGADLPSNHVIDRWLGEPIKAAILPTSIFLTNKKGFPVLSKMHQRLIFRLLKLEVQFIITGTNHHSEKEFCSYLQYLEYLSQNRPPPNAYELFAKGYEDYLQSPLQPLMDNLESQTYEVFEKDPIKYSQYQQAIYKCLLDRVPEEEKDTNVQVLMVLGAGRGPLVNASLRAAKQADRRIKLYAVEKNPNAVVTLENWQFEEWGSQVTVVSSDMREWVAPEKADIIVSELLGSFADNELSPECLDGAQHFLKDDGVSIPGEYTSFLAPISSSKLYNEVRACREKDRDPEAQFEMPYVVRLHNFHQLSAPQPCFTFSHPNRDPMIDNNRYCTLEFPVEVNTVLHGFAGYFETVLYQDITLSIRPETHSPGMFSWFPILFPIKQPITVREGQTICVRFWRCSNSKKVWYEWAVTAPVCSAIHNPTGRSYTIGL
Sequence of human PRMT5/MEP50 (Q9BQA1 whole entry partner): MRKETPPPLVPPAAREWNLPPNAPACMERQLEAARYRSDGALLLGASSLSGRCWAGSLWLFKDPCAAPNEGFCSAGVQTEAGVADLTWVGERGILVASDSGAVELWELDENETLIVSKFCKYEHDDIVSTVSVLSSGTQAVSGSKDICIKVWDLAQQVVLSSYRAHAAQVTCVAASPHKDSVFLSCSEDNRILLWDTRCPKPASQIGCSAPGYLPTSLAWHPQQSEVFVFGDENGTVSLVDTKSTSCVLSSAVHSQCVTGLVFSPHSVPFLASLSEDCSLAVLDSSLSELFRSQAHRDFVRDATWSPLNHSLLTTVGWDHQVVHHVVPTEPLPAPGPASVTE

Row | SMILES | IC50 [nM]
1 | Cc1cc(C2CCCN(C(=O)NC[C@H](O)CN3CCc4ccccc4C3)C2)ccn1 (stereo partly drawn) [Example 1BT, N-((S)-3-(3,4-dihydroisoquinolin-2(1H)-yl)-2-hydroxypropyl)-3-(2-methylpyridin-4-yl)piperidine-1-carboxamide] | 127
2 | O=C(OCC(O)CN1CCc2ccccc2C1)N1CCC(c2ccccc2)C1 (stereo not drawn) [Example 3D, 2-hydroxy-3-(1,2,3,4-tetrahydroisoquinolin-2-yl)propyl 3-phenylpyrrolidine-1-carboxylate] | 15
3 | O=C(NC[C@H](O)CN1CCc2ccccc2C1)N1CCCOCC1 [Example 1BP, (S)-N-(3-(3,4-dihydroisoquinolin-2(1H)-yl)-2-hydroxypropyl)-1,4-oxazepane-4-carboxamide] | 7330
4 | O=C(NC[C@H](O)CN1CCc2ccccc2C1)N1CCCC(n2ccnc2)C1 (stereo partly drawn) [Example 1BL, N-((S)-3-(3,4-dihydroisoquinolin-2(1H)-yl)-2-hydroxypropyl)-3-(1H-imidazol-1-yl)piperidine-1-carboxamide] | 4440
5 | O=C(NC[C@H](O)CN1CCc2ccccc2C1)N1CCCC(N2CCCOCC2)C1 (stereo partly drawn) [Example 1CC, N-((S)-3-(3,4-dihydroisoquinolin-2(1H)-yl)-2-hydroxypropyl)-3-(1,4-oxazepan-4-yl)piperidine-1-carboxamide] | 1640
6 | O=C(NC[C@H](O)CN1CCc2ccccc2C1)N1CCC[C@@H](c2ccccc2)C1 (single isomer, unassigned) [Example 5A, (S)-N-((S)-3-(3,4-dihydroisoquinolin-2(1H)-yl)-2-hydroxypropyl)-3-phenylpiperidine-1-carboxamide or (R)-N-((S)-3-(3,4-dihydroisoquinolin-2(1H)-yl)-2-hydroxypropyl)-3-phenylpiperidine-1-carboxamide] | 26
7 | O=C(OCC(O)CN1CCc2ccccc2C1)N1CC(C(=O)N2CCOCC2)C1 (stereo not drawn) [Example 4T, 3-(3,4-dihydroisoquinolin-2(1H)-yl)-2-hydroxypropyl 3-(morpholine-4-carbonyl)azetidine-1-carboxylate] | 1860
8 | O=C(NC[C@H](O)CN1CCc2ccccc2C1)N1CCC[C@@H](c2ccccc2)C1 [Example 1AN, (S)-N-((S)-3-(3,4-dihydroisoquinolin-2(1H)-yl)-2-hydroxypropyl)-3-phenylpiperidine-1-carboxamide] | 14
9 | O=C(OCC(O)CN1CCc2ccsc2C1)N1CCc2ccccc2C1 (stereo not drawn) [Example 4AB, 3-(4,7-dihydrothieno[2,3-c]pyridin-6(5H)-yl)-2-hydroxypropyl 3,4-dihydroisoquinoline-2(1H)-carboxylate] | 1010
10 | COC(=O)N1CCCN(C(=O)NC[C@H](O)CN2CCc3ccccc3C2)CC1 [Example 1AS, Methyl (S)-4-((3-(3,4-dihydroisoquinolin-2(1H)-yl)-2-hydroxypropyl)carbamoyl)-1,4-diazepane-1-carboxylate] | 112
11 | O=C(NC[C@H](O)CN1CCc2ccccc2C1)N1CCC(C(=O)N2CCOCC2)CC1 [Example 1AY, (S)-N-(3-(3,4-dihydroisoquinolin-2(1H)-yl)-2-hydroxypropyl)-4-(morpholine-4-carbonyl)piperidine-1-carboxamide] | 311
12 | O=C(OCC(O)CN1CCc2ccccc2C1)N1CCSCC1 (stereo not drawn) [Example 4A, 3-(3,4-dihydroisoquinolin-2(1H)-yl)-2-hydroxypropyl thiomorpholine-4-carboxylate] | 477
13 | O=C(NCC(O)CN1CCc2ccccc2C1)N1CCCCC1 (stereo not drawn) [Example 1L, N-[2-hydroxy-3-(1,2,3,4-tetrahydroisoquinolin-2-yl)propyl]piperidine-1-carboxamide] | 1640
14 | O=C(OCC(O)CN1CCc2ccsc2C1)N1CCCc2ccccc21 (stereo not drawn) [Example 4Z, 3-(4,7-dihydrothieno[2,3-c]pyridin-6(5H)-yl)-2-hydroxypropyl 3,4-dihydroquinoline-1(2H)-carboxylate] | 448
15 | O=C(OCC(O)CN1CCc2sccc2C1)N1CCCc2ccccc21 (stereo not drawn) [Example 4Y, 3-(6,7-dihydrothieno[3,2-c]pyridin-5(4H)-yl)-2-hydroxypropyl 3,4-dihydroquinoline-1(2H)-carboxylate] | 1460
16 | O=C(NC[C@H](O)CN1CCc2ccccc2C1)N1CCCN(S(=O)(=O)c2ccccc2)CC1 [Example 1BM, (S)-N-(3-(3,4-dihydroisoquinolin-2(1H)-yl)-2-hydroxypropyl)-4-(phenylsulfonyl)-1,4-diazepane-1-carboxamide] | 1280
17 | O=C(OCC(O)CN1CCc2ccccc2C1)N1CCC(Cc2ccccc2)CC1 (stereo not drawn) [Example 4D, 3-(3,4-dihydroisoquinolin-2(1H)-yl)-2-hydroxypropyl 4-benzylpiperidine-1-carboxylate] | 173
18 | O=C(NCC(O)CN1CCc2ccccc2C1)N1CCCc2ccccc21 (stereo not drawn) [Example 2A, N-(3-(3,4-dihydroisoquinolin-2(1H)-yl)-2-hydroxypropyl)-3,4-dihydroquinoline-1(2H)-carboxamide] | 87

Row | SMILES | IC50 [nM]
19 | O=C(NC[C@H](O)CN1CCc2ccccc2C1)N1CCCC(N2CCSCC2)C1 (stereo partly drawn) [Example 1BX, N-((S)-3-(3,4-dihydroisoquinolin-2(1H)-yl)-2-hydroxypropyl)-3-thiomorpholinopiperidine-1-carboxamide] | 634
20 | O=C(NC[C@H](O)CN1CCc2ccccc2C1)N1CCCC(O)(c2ccccc2)C1 (stereo partly drawn) [Example 1BH, N-((S)-3-(3,4-dihydroisoquinolin-2(1H)-yl)-2-hydroxypropyl)-3-hydroxy-3-phenylpiperidine-1-carboxamide] | 167
21 | CS(=O)(=O)N1CCCN(C(=O)NC[C@H](O)CN2CCc3ccccc3C2)CC1 [Example 1AQ, (S)-N-(3-(3,4-dihydroisoquinolin-2(1H)-yl)-2-hydroxypropyl)-4-(methylsulfonyl)-1,4-diazepane-1-carboxamide] | 77
22 | O=C(NC[C@H](O)CN1CCc2ccccc2C1)N1CCCC(c2ccccn2)C1 (stereo partly drawn) [Example 1BQ, N-((S)-3-(3,4-dihydroisoquinolin-2(1H)-yl)-2-hydroxypropyl)-3-(pyridin-2-yl)piperidine-1-carboxamide] | 48
23 | O=C(OC[C@H](O)CN1CCc2ccccc2C1)N1CCC(C(=O)N2CCOCC2)CC1 [Example 4P, (R)-3-(3,4-dihydroisoquinolin-2(1H)-yl)-2-hydroxypropyl 4-(morpholine-4-carbonyl)piperidine-1-carboxylate] | 225
24 | CC(=O)N1CCCN(C(=O)OCC(O)CN2CCc3ccccc3C2)CC1 (stereo not drawn) [Example 4V, 3-(3,4-dihydroisoquinolin-2(1H)-yl)-2-hydroxypropyl 4-acetyl-1,4-diazepane-1-carboxylate] | 38900
25 | CC(=O)N1CCCN(C(=O)NC[C@@H](O)CN2CCc3ccccc3C2)CC1 [Example 1BB, (R)-4-acetyl-N-(3-(3,4-dihydroisoquinolin-2(1H)-yl)-2-hydroxypropyl)-1,4-diazepane-1-carboxamide] | 51800
26 | O=C(NCC(O)CN1CCc2ccccc2C1)N1CCSCC1 (stereo not drawn) [Example 1U, N-(3-(3,4-dihydroisoquinolin-2(1H)-yl)-2-hydroxypropyl)thiomorpholine-4-carboxamide] | 896
27 | O=C(NC[C@H](O)CN1CCc2ccccc2C1)N1CCCC(c2ccccc2)C1 (stereo partly drawn) [Example 1AG, (S)-N-((S)-3-(3,4-dihydroisoquinolin-2(1H)-yl)-2-hydroxypropyl)-3-phenylpiperidine-1-carboxamide] | 185
28 | O=C(NC[C@H](O)CN1CCc2ccccc2C1)N1CCC(F)(F)CC1 [Example 1BF, (S)-N-(3-(3,4-dihydroisoquinolin-2(1H)-yl)-2-hydroxypropyl)-4,4-difluoropiperidine-1-carboxamide] | 5600
29 | Cn1cc(C2CCCN(C(=O)NC[C@H](O)CN3CCc4ccccc4C3)C2)ccc1=O (stereo partly drawn) [Example 1BR, N-((S)-3-(3,4-dihydroisoquinolin-2(1H)-yl)-2-hydroxypropyl)-3-(1-methyl-6-oxo-1,6-dihydropyridin-3-yl)piperidine-1-carboxamide] | 490
30 | O=C(OC[C@@H](O)CN1CCc2ccccc2C1)N1CCC(c2ccccc2)C1 (stereo partly drawn) [Example 4F, (S)-3-(3,4-dihydroisoquinolin-2(1H)-yl)-2-hydroxypropyl 3-phenylpyrrolidine-1-carboxylate] | 49
31 | O=C(NC[C@H](O)CN1CCc2ccccc2C1)N1CCCC(c2ccc(F)cc2)C1 (stereo partly drawn) [Example 1BU, N-((S)-3-(3,4-dihydroisoquinolin-2(1H)-yl)-2-hydroxypropyl)-3-(4-fluorophenyl)piperidine-1-carboxamide] | 12
32 | O=C(OC[C@@H](O)CN1CCc2ccccc2C1)N1CCC(C(=O)N2C3CCC2COC3)CC1 [Example 4X, (S)-3-(3,4-dihydroisoquinolin-2(1H)-yl)-2-hydroxypropyl 4-(3-oxa-8-azabicyclo[3.2.1]octane-8-carbonyl)piperidine-1-carboxylate] | 809
33 | O=C(NC[C@H](O)CN1CCc2ccccc2C1)N1CCCC(N2CCCSCC2)C1 (stereo partly drawn) [Example 1CB, N-((S)-3-(3,4-dihydroisoquinolin-2(1H)-yl)-2-hydroxypropyl)-3-(1,4-thiazepan-4-yl)piperidine-1-carboxamide] | 337
34 | O=C(NC[C@H](O)CN1CCc2ccccc2C1)N1CCC(c2ccccn2)C1 (stereo partly drawn) [Example 1BA, N-((S)-3-(3,4-dihydroisoquinolin-2(1H)-yl)-2-hydroxypropyl)-3-(pyridin-2-yl)pyrrolidine-1-carboxamide] | 97
35 | O=C(NC[C@H](O)CN1CCc2ccccc2C1)N1CCCC(N2CCOCC2)C1 (stereo partly drawn) [Example 1BW, N-((S)-3-(3,4-dihydroisoquinolin-2(1H)-yl)-2-hydroxypropyl)-3-morpholinopiperidine-1-carboxamide] | 2860
36 | COC(=O)N1CCCN(C(=O)OCC(O)CN2CCc3ccccc3C2)CC1 (stereo not drawn) [Example 4W, 1-(3-(3,4-dihydroisoquinolin-2(1H)-yl)-2-hydroxypropyl) 4-methyl 1,4-diazepane-1,4-dicarboxylate] | 10800
